# Reference: ChEMBL document CHEMBL5241075, “Advancement of chimeric hybrid drugs to cure malaria infection: An overview with special emphasis on endoperoxide pharmacophores” (Eur J Med Chem, 2021)
# The source made the active and inactive calls. The rule behind the calls is not given here.
# Legend:
# Plasmodium falciparum [1] = assay: Antiplasmodial activity against Plasmodium falciparum W2; type: functional, organism-based
# Plasmodium berghei [2] = assay: Antimalarial activity against liver stage Plasmodium berghei; type: functional, organism-based
# Caco-2 = assay: Cytotoxicity against human Caco-2 cells assessed as reduction in cell viability; type: functional
# Plasmodium yoelii = assay: Antimalarial activity against Plasmodium yoelii infected in swiss mouse assessed as reduction in parasitemia at 96 mg/kg, po relative to control; type: functional; design: scale not given: the % may be the effect or the level left
# Plasmodium falciparum [3] = assay: Antiplasmodial activity against Plasmodium falciparum 3D7; type: functional, organism-based
# Plasmodium falciparum [4] = assay: Antiplasmodial activity against Plasmodium falciparum K1; type: functional, organism-based; details: Plasmodium falciparum, K1
# Plasmodium falciparum [5] = assay: Antiplasmodial activity against Plasmodium falciparum DD2; type: functional, organism-based
# Plasmodium berghei [6] = assay: Antiplasmodial activity against Plasmodium berghei infected in mouse assessed as reduction in parasitemia at 65 mg/kg, sc measured after 4 days post treatment relative to control; type: functional; design: scale not given: the % may be the effect or the level left; details: time 4 day
# Plasmodium berghei [7] = assay: Antiplasmodial activity against Plasmodium berghei infected in mouse assessed as reduction in parasitemia at 35 microg/kg, sc measured after 4 days post treatment relative to control; type: functional; design: scale not given: the % may be the effect or the level left; details: dose 35 µg/kg, time 4 day
# Plasmodium berghei [8] = assay: Antiplasmodial activity against Plasmodium berghei infected in mouse assessed as reduction in parasitemia by measuring survival rate at 35 microg/kg, sc measured after 41 days of post infection relative to control; type: functional; details: 984 h, dose 35 µg/kg, time 41 day
# Plasmodium berghei [9] = assay: Antimalarial activity against Plasmodium berghei infected in mouse assessed as reduction in parasitemia; type: functional; details: Plasmodium berghei
# Plasmodium berghei [10] = assay: Antimalarial activity against Plasmodium berghei KBG 173 infected in ICR mouse assessed as animal survival at 320 mg/kg/day, po qd administered 3 to 5 days post infection; type: functional, organism-based; details: time 3-5 day
# Plasmodium berghei [11] = assay: Antimalarial activity against Plasmodium berghei KBG 173 infected in ICR mouse assessed as animal survival at 80 mg/kg/day, po qd administered 3 to 5 days post infection; type: functional, organism-based; details: time 3-5 day
# Plasmodium berghei [12] = assay: Antimalarial activity against Plasmodium berghei KBG 173 infected in ICR mouse assessed as animal survival at 20 mg/kg/day, po qd administered 3 to 5 days post infection; type: functional, organism-based; details: time 3-5 day
# Plasmodium berghei [13] = assay: Antimalarial activity against Plasmodium berghei KBG 173 infected in ICR mouse assessed as survival time at 320 mg/kg/day, po qd administered 3 to 5 days post infection; type: functional; details: time 3-5 day
# Plasmodium berghei [14] = assay: Antimalarial activity against Plasmodium berghei KBG 173 infected in ICR mouse assessed as survival time at 80 mg/kg/day, po qd administered 3 to 5 days post infection; type: functional; details: time 3-5 day
# Plasmodium berghei [15] = assay: Antimalarial activity against Plasmodium berghei KBG 173 infected in ICR mouse assessed as survival time at 20 mg/kg/day, po qd administered 3 to 5 days post infection; type: functional; details: time 3-5 day
# Plasmodium chabaudi = assay: Antiplasmodial activity against Plasmodium chabaudi infected in mouse assessed as survival rate relative to control; type: functional
# Plasmodium berghei [16] = assay: Antiplasmodial activity against Plasmodium berghei N infected in po dosed mouse assessed as reduction in parasitemia; type: functional
# Plasmodium berghei [17] = assay: Antiplasmodial activity against Plasmodium berghei N infected in sc dosed mouse assessed as reduction in parasitemia; type: functional
# Plasmodium falciparum [18] = assay: Antiplasmodial activity against Plasmodium falciparum NF54; type: functional, organism-based
# Plasmodium falciparum [19] = assay: Potency index, ratio of artesunate IC50 to test compound IC50 for antiplasmodial activity against Plasmodium falciparum gametocytes by [3H]hypoxanthine incorporation assay; type: functional
# Plasmodium falciparum [20] = assay: Potency index, ratio of mefloquine IC50 to test compound IC50 for antiplasmodial activity against Plasmodium falciparum gametocytes by [3H]hypoxanthine incorporation assay; type: functional
# Plasmodium falciparum [21] = assay: Antiplasmodial activity against Plasmodium falciparum gametocytes assessed as inhibition of gametocyte activation by [3H]hypoxanthine incorporation assay; type: functional, organism-based
# Plasmodium falciparum [22] = assay: Antiplasmodial activity against Plasmodium falciparum gametocytes by [3H]hypoxanthine incorporation assay; type: functional, organism-based
# [23] = test system: Plasmodium yoelii nigeriensis; assay: Antiplasmodial activity against Plasmodium yoelii nigeriensis infected in po dosed mouse assessed as reduction in parasitemia; type: functional; details: for ED50 / ED90: Plasmodium yoelii
# Plasmodium falciparum [24] = assay: Antimalarial activity against chloroquine resistant Plasmodium falciparum FcB1; type: functional, organism-based
# [25] = test system: Plasmodium yoelii nigeriensis; assay: Antiplasmodial activity against Plasmodium yoelii nigeriensis infected in sc dosed mouse assessed as reduction in parasitemia; type: functional; details: for ED50 / ED90: Plasmodium yoelii
# Plasmodium falciparum [26] = assay: Antiplasmodial activity against Plasmodium falciparum F-32; type: functional, organism-based
# Plasmodium falciparum [27] = assay: Antiplasmodial activity against Plasmodium falciparum FcM29; type: functional, organism-based
# Plasmodium falciparum [28] = assay: Antiplasmodial activity against Plasmodium falciparum Nigerian; type: functional, organism-based
# Plasmodium vinckei [29] = assay: Antimalarial activity against Plasmodium vinckei infected in ip dosed mouse assessed as reduction in parasitemia relative to control; type: functional; design: scale not given: the % may be the effect or the level left
# Plasmodium vinckei [30] = assay: Antimalarial activity against Plasmodium vinckei infected in po dosed mouse assessed as reduction in parasitemia relative to control; type: functional; design: scale not given: the % may be the effect or the level left
# Plasmodium vinckei [31] = assay: Antimalarial activity against Plasmodium vinckei infected in ip dosed mouse assessed as reduction in parasitemia; type: functional
# Plasmodium vinckei [32] = assay: Antimalarial activity against Plasmodium vinckei infected in po dosed mouse assessed as reduction in parasitemia; type: functional
# Plasmodium falciparum [33] = assay: Antiplasmodial activity against Plasmodium falciparum D6; type: functional, organism-based
# Plasmodium falciparum [34] = assay: Antiplasmodial activity against Plasmodium falciparum D10; type: functional, organism-based; details: Plasmodium falciparum, D10
# Hemozoin = assay: Inhibition of Beta-hematin in Plasmodium falciparum
# Plasmodium falciparum [35] = assay: Antimalarial activity against chloroquine resistant Plasmodium falciparum FcM29 Cameron; type: functional, organism-based
# Plasmodium falciparum [36] = assay: Antimalarial activity against chloroquine sensitive Plasmodium falciparum D6; type: functional, organism-based
# Plasmodium falciparum [37] = assay: Antiplasmodial activity against Plasmodium falciparum TM91C235; type: functional, organism-based
# [38] = read-out: ED50 (the source's name)
compound,measurement,setting,value
COc1cc(NC(C)CCCNC(=O)C2CCC3(CC2)OOC2(OO3)C3CC4CC(C3)CC2C4)c2nccc(Br)c2c1 (configuration not stated),EC50,Plasmodium falciparum [1],0.061 µM
same,EC50,Plasmodium berghei [2],4.44 µM
same,CC50,Caco-2,> 50000 µM
C=C(c1ccccc1)C1COC2(CCC(NCCCCNc3ccnc4cc(Cl)ccc34)CC2)OO1 (configuration not stated),Activity,Plasmodium yoelii,89%
COc1cc(NC(C)CCCNC(=O)C2CCC3(CC2)OOC2(OO3)C3CC4CC(C3)CC2C4)c2nccc(Cl)c2c1 (configuration not stated),EC50,Plasmodium falciparum [1],0.075 µM
same,EC50,Plasmodium berghei [2],2.81 µM
same,CC50,Caco-2,> 50000 µM
C[C@H]1[C@H](OC(=O)CCC(=O)CCNc2ccnc3cc(Cl)ccc23)O[C@@H]2O[C@]3(C)CC[C@H]4[C@H](C)CC[C@@H]1[C@@]24OO3,EC50,Plasmodium falciparum [3]; read-out: EC50,0.0045 µM
same,EC50,Plasmodium falciparum [4]; read-out: EC50,0.0017 µM
same,EC50,Plasmodium falciparum [5],0.0023 µM
same,Activity,Plasmodium berghei [6],>99%
same,Activity,Plasmodium berghei [7],95.2%
same,survival at 0.035 mg/kg,Plasmodium berghei [8],80%
C[C@@H]1CC[C@H]2[C@@H](C)C(CCN3CCN(c4ccc(C(F)(F)F)cc4)CC3)O[C@@H]3O[C@]4(C)CC[C@@H]1[C@]32OO4 (some centres not stated),ED50,Plasmodium berghei [9],6 mg/kg
same,IC50,Plasmodium falciparum [4],0.00619 µM
Clc1ccc2c(NCCNCC3CCC4(CC3)OOC3(CCCCC3)OO4)ccnc2c1,Activity,Plasmodium berghei [10],Active
same,Activity,Plasmodium berghei [11],Active
same,Activity,Plasmodium berghei [12],inactive
same,Time,Plasmodium berghei [13],>31 days
same,Time,Plasmodium berghei [14],26.4 days
same,Time,Plasmodium berghei [15],15.8 days
C[C@@H]1CC[C@H]2[C@@H](C)C(CCc3ccc(C(=O)O)cc3)O[C@@H]3O[C@]4(C)CC[C@@H]1[C@]32OO4 (some centres not stated),EC50,Plasmodium falciparum [3]; [38],1.1 ng/mL
same,EC50,Plasmodium falciparum [4]; [38],0.6 ng/mL
same,Survival,Plasmodium chabaudi,100%
C=C(c1ccccc1)C1COC2(CCC(NCCNc3ccnc4cc(Cl)ccc34)CC2)OO1 (configuration not stated),Activity,Plasmodium yoelii,89%
Cc1ccc(C2O[C@@H]3O[C@]4(C)CC[C@H]5[C@H](C)CC[C@@H]([C@H]2C)[C@@]35OO4)o1 (some centres not stated),ED50,Plasmodium berghei [16],15.5 mg/kg
same,ED50,Plasmodium berghei [17],0.9 mg/kg
same,IC50,Plasmodium falciparum [18],0.0052 µM
C[C@H]1[C@@H](OC(=O)CCC(=O)O)O[C@@H]2C[C@@]3(C)CC[C@H]4[C@H](C)CC[C@@H]1[C@@]24OO3.FC(F)(F)c1ccc2c(CC3CCCCN3)c3cccc(C(F)(F)F)c3nc2c1 (configuration not stated),Ratio,Plasmodium falciparum [19],15
same,Ratio,Plasmodium falciparum [20],280
same,IC50,Plasmodium falciparum [21],20 µM
same,IC50,Plasmodium falciparum [22],4600 µM
CC(C)C1=C[C@H]2OC3(CCC(NCCNc4cc(Cl)cc5cccnc45)CC3)OO[C@@]2(C)CC1.O=C(O)CC(O)(CC(=O)O)C(=O)O.O=C(O)CC(O)(CC(=O)O)C(=O)O (some centres not stated),CD50,[23],22 mg/kg/day
same,CD90,[23],44 mg/kg/day
same,ED50,[23],15 mg/kg/day
same,ED90,[23],23 mg/kg/day
same,IC50,Plasmodium falciparum [24],0.004 µM
same,CD50,[25],3 mg/kg/day
same,CD90,[25],12 mg/kg/day
same,ED50,[25],2 mg/kg/day
same,ED90,[25],5 mg/kg/day
same,IC50,Plasmodium falciparum [26],0.004 µM
same,IC50,Plasmodium falciparum [27],0.004 µM
same,IC50,Plasmodium falciparum [28],0.004 µM
same,Activity,Plasmodium vinckei [29],50%
same,Activity,Plasmodium vinckei [30],50%
same,ED50,Plasmodium vinckei [31],5 mg/kg/day
same,ED50,Plasmodium vinckei [32],18 mg/kg/day
C[C@@H]1CC[C@H]2[C@@H](C)C(=O)O[C@@H]3O[C@@]4(C)CC[C@@H]1[C@]32OO4 [ARTEMISININ],IC50,Plasmodium falciparum [1],0.0067 µM
same,IC90,Plasmodium falciparum [1],0.0115 µM
same,IC50,Plasmodium falciparum [33],0.009 µM
same,IC90,Plasmodium falciparum [33],0.0128 µM
same,IC50,Plasmodium falciparum [3],0.00532 µM
same,IC50,Plasmodium falciparum [34],0.023 µM
same,IC50,Hemozoin,0.66 equiv
same,CD50,[23],75 mg/kg/day
same,CD90,[23],>100 mg/kg/day
same,ED50,[23],16 mg/kg/day
same,ED90,[23],27 mg/kg/day
same,CD50,[25],3 mg/kg/day
same,CD90,[25],5 mg/kg/day
same,ED50,[25],3 mg/kg/day
same,ED90,[25],5 mg/kg/day
same,IC50,Plasmodium falciparum [35],0.007 µM
same,IC50,Plasmodium falciparum [36],0.008 µM
same,IC50,Plasmodium falciparum [37],0.013 µM
same,IC90,Plasmodium falciparum [37],0.0174 µM
